The target of the test is Wild-type IDH1 (Homo sapiens (Human), UniProt O75874). As to the kind of experiment: Biochemical assay for wild-type IDH1 enzyme (isocitrate to αKG). The settings on record: mean ± SEM. The method, then:
IDH1 and IDH2 enzymes catalyze the conversion of isocitrate to αKG. Wild-type IDH1 (National Center for Biotechnology Information, Accession: NP_001269316.1) and IDH2 (National Center for Biotechnology Information, Accession: EAX02082.1) proteins containing N-terminal His-tag are expressed in E. coli and purified using nickel affinity chromatography by methods commonly used and well known to those skilled in the art. The enzyme assays are carried out in V-bottom 96 well polypropylene plates containing 100 mM Tris-HCl buffer at pH 7.5, 1 mM DTT, 0.005% TRITON™ X-100, 120 mM NaCl. For the IDH1 wild-type assay isocitrate, NADP^+ and MnCl2 are included at the concentrations of 85 μM, 50 μM and 20 μM respectively. For the IDH2 wild-type assay isocitrate, NADP^+ and MnCl2 are included at the concentrations of 30 μM, 50 μM and 10 μM respectively. Inhibitors dissolved in a DMSO stock solution are diluted in the reaction mixture at a final DMSO concentration of 4%. The enzyme assay is terminated (quenched) by adding ACN (50:50) containing d (d6-αKG) as an internal standard for mass spectrometry analysis. Ten microliters of reaction mixture is combined with 100 μL of water, 50 μL of 1 M O-benzylhydroxylamine in pyridine buffer (8.6% pyridine, pH 5), and 50 μL of 1 M EDC in pyridine buffer. Following derivatization at room temperature for one hour, samples are extracted with EtOAc (600 μL). […] of the upper layer is removed, dried under heated nitrogen, and reconstituted with MeOH/water (1:1) (100 μL). Ten μL of derivatized sample is injected onto an LC-MS system consisting of a Shimadzu Prominence 20A HPLC system and a Thermo Quantum Ultra™ triple quadrupole mass spectrometer. Analytes are separated on a Waters XBridge™ C18 column (2.1×50 mm, […]) with a flow rate of 0.6 mL/minute. Mobile phase A is 0.1% formic acid in water and mobile phase B is MeOH. The αKG signal detected is transformed into analyte concentration using a calibration curve generated using known αKG concentrations. […] IC50 values are obtained from the individual % inhibition values at different compound concentrations using a 4-parameter equation. These calculations are carried out using Activity Base (IDBS) or Screener (Genedata) data analysis programs.

Sequence of Wild-type IDH1 (O75874 whole entry): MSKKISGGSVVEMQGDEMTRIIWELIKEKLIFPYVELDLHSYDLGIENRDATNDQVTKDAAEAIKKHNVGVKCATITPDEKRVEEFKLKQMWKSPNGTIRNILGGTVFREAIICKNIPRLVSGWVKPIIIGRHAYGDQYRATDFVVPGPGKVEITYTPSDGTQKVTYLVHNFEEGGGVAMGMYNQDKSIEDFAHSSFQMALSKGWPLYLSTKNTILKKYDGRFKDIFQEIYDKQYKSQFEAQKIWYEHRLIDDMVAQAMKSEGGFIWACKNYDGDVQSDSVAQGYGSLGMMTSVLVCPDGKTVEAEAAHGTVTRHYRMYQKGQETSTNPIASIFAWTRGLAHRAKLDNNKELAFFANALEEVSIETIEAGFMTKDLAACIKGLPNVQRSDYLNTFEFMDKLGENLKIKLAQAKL

What is called IC50 is the concentration needed to halve the response being measured. Turning to `C=CC(=O)N1CCN(Cc2ccc([C@H](C)Nc3nccc(N4C(=O)OC[C@@H]4C(C)C)n3)cc2)CC1` [Example 1, (S)-3-(2-(((S)-1-(4-((4-Acryloylpiperazin-1-yl)methyl)phenyl)ethyl)amino)pyrimidin-4-yl)-4-isopropyloxazolidin-2-one], inhibition was half-maximal at 1560 ± 200 nM (IC50). Next, `C=CC(=O)N1CCN(Cc2ccc([C@H](C)Nc3nccc(N4C(=O)OC[C@@H]4CC)n3)cc2)CC1` [Example 2, (S)-3-(2-(((S)-1-(4-((4-acryloylpiperazin-1-yl)methyl)phenyl)ethyl)amino)pyrimidin-4-yl)-4-ethyloxazolidin-2-one]: 3150 ± 70 nM; `C=CC(=O)N1CCN(Cc2ccc([C@H](C)Nc3nccc(N4C(=O)OC[C@@H]4C)n3)cc2)CC1` [Example 3, (S)-3-(2-(((S)-1-(4-((4-acryloylpiperazin-1-yl)methyl)phenyl)ethyl)amino)pyrimidin-4-yl)-4-methyloxazolidin-2-one]: 15500 ± 500 nM.

As to `C=CC(=O)N1CCN(Cc2ccc([C@H](C)Nc3nccc(N4C(=O)OCC4(C)C)n3)cc2)CC1` [Example 4, (S)-3-(2-((1-(4-((4-acryloylpiperazin-1-yl)methyl)phenyl)ethyl)amino)pyrimidin-4-yl)-4,4-dimethyloxazolidin-2-one], half-maximal inhibition (IC50) required 6760 ± 1350 nM.

`C=CC(=O)N1CCN(Cc2ccc([C@H](C)Nc3ncc(F)c(N4C(=O)OC[C@@H]4C(C)C)n3)cc2)CC1` [Example 5, (S)-3-(2-(((S)-1-(4-((4-acryloylpiperazin-1-yl)methyl)phenyl)ethyl)amino)-5-fluoropyrimidin-4-yl)-4-isopropyloxazolidin-2-one] came in with an IC50 of 2460 ± 300 nM.

`C=CC(=O)N1CCN(Cc2ccc([C@H](C)Nc3nc(F)cc(N4C(=O)OCC4(C)C)n3)cc2)CC1` [Example 11, (S)-3-(2-((1-(4-((4-acryloylpiperazin-1-yl)methyl)phenyl)ethyl)amino)-6-fluoropyrimidin-4-yl)-4,4-dimethyloxazolidin-2-one] showed an IC50 of 2200 nM. Next, `C=CC(=O)N1CCN(C(CC2CC2)c2ccc([C@H](C)Nc3nccc(N4C(=O)OC[C@@H]4[C@@H](C)O)n3)cc2)CC1` (stereo partly shown) [Example 26]: 145 nM.

These data come from patent US10696665B2, “Mutant IDH1 inhibitors” (Eli Lilly and Company, priority 2016, dated 2020).
